Consider five molecules from ChEMBL document CHEMBL1158583, “3-(2-Aminocarbonylphenyl)propanoic acid analogs as potent and selective EP3 receptor antagonists. Part 3: Synthesis, metabolic stability, and biological evaluation of optically active analogs” (Bioorg Med Chem, 2010).

Data set [1] is described as follows: (§1) AUC in rat at […], iv. Type of data set: ADME, organism-based. More on the design: dose 2.7 mg/kg, route intravenous. Conditions: plasma.
The nature of data set [2]: (§2) Volume of distribution at steady state in rat at […], iv. Type of data set: ADME, organism-based. Also noted: dose 2.7 mg/kg, route intravenous. Conditions: in vivo, read-out: Vdss.
Data set [3] in a line: (§3) AUC in rat at 10 mg/kg, po. The class given is ADME, organism-based, Plasma. Also noted: dose 10 mg/kg, route oral. The note with it: plasma.
Data set [4] can be described thus: (§4) Oral bioavailability in rat at 10 mg/kg. The class given is ADME, organism-based. The note with it: in vivo.
A short description of data set [5]: as §1. The class given is ADME, organism-based. Also noted: dose 1.2 mg/kg, route intravenous. The note with it: plasma.
A short description of data set [6]: as §2. The class given is ADME, organism-based. Also noted: dose 1.2 mg/kg, route intravenous. The note with it: in vivo, read-out: Vdss.
Data set [7] in a line: Cmax in rat at 10 mg/kg, po. Type of data set: ADME, organism-based. More on the design: dose 10 mg/kg, route oral. Conditions: in vivo.
A short description of data set [8]: as §1. Type of data set: ADME, organism-based. Also noted: dose 1.8 mg/kg, route intravenous. Conditions: plasma.
A short description of data set [9]: as §2. Type of data set: ADME, organism-based. More on the design: dose 1.8 mg/kg, route intravenous. The note with it: in vivo, read-out: Vdss.
A short description of data set [10]: (§5) AUC in rat at 2 mg/kg, iv. Type of data set: ADME, organism-based, Plasma. Also noted: dose 2 mg/kg, route intravenous. Conditions: plasma.
Data set [11] in a line: Volume of distribution at steady state in rat at 2 mg/kg, iv. Conditions: in vivo, read-out: Vdss. The class given is ADME, organism-based. More on the design: dose 2 mg/kg, route intravenous.
Data set [12] relates to Rattus norvegicus. Described as §4. The class given is ADME, organism-based. Conditions: in vivo.
In data set [13] the test system is Rattus norvegicus. Described as §5. The class given is ADME, organism-based, Plasma. More on the design: dose 2 mg/kg, route intravenous. Conditions: in vivo.
In data set [14] the test system is Rattus norvegicus. Described as §3. Also noted: dose 10 mg/kg, route oral. The note with it: in vivo. The class given is ADME, organism-based, Plasma.

Turning to `Cc1cc(C)cc([C@@H](CC(C)C)NC(=O)c2cc(COc3ccccc3C)ccc2CCC(=O)O)c1`, the results for the area under the curve (AUC) in data set [1] and in [3] were 890 ng·h/mL and 1010 ng·h/mL, respectively. Further, the Vd in [2] amounted to 1.24 L/kg.

In [4], `Cc1cc(C)cc([C@@H](CC(C)C)NC(=O)c2cc(COc3cc(F)ccc3F)ccc2CCC(=O)O)c1` registered a bioavailability of 18%. In data set [5], this molecule displayed an AUC of 681 ng·h/mL. The Vd in data set [6] was 0.39 L/kg. The same molecule returned a Cmax in data set [7] of 190 ng/mL.

As for `Cc1cc(C)cc([C@@H](CC(C)C)NC(=O)c2cc(COc3cc(C)ccc3C)ccc2CCC(=O)O)c1`, the bioavailability in [4] turned out to be 54%. The exposure (AUC) in data set [8] is 1370 ng·h/mL; in [3], 4100 ng·h/mL. In addition, in data set [9], the Vd was 0.67 L/kg. Moreover, in data set [7], the maximum concentration (Cmax) stood at 1350 ng/mL.

As to `Cc1cc(C)cc(Oc2ccc(CCC(=O)O)c(C(=O)N[C@H](CC(C)C)c3cc(C)cc(C)c3)c2)c1`, in [4], the bioavailability amounted to 21%. Further, the AUC was found to be 1370 ng·h/mL in data set [10] and 1430 ng·h/mL in [3]. Besides, in data set [11], the Vd is 0.56 L/kg. For the same molecule, in data set [7], the concentration peaked (Cmax) at 950 ng/mL.

Turning to `Cc1cc(C)cc(Nc2ccc(CCC(=O)O)c(C(=O)N[C@H](CC(C)C)c3cc(C)cc(C)c3)c2)c1`, the bioavailability in data set [12] came out at 25%. The AUC worked out at 2.67 µg·h/mL in data set [13] and 3.27 µg·h/mL in data set [14]. For the same molecule, the Vd in data set [11] was determined as 1.03 L/kg. This molecule showed a Cmax in [7] of 1370 ng/mL.
